According to BigSolDB 2.1:

CCc1cccc(CC)c1/N=C(C)/C=C(/C)Nc1c(CC)cccc1CC
solubility (mole fraction)
Conditions | 268.15 K | 273.15 K | 278.15 K | 283.15 K | 288.15 K | 293.15 K | 298.15 K | 303.15 K | 308.15 K | 313.15 K
in THF | 0.134 | 0.147 | 0.164 | 0.186 | 0.213 | 0.246 | 0.282 | 0.319 | – | –
in diethyl ether | 0.0732 | 0.0961 | 0.123 | 0.152 | 0.184 | 0.215 | 0.248 | 0.283 | – | –
in ethanol | 0.00158 | 0.00186 | 0.0022 | 0.00258 | 0.00315 | 0.00369 | 0.00476 | 0.00595 | 0.00738 | 0.00964
in methanol | 0.0003 | 0.00037 | 0.00047 | 0.00058 | 0.00072 | 0.00089 | 0.0011 | 0.00138 | 0.00173 | 0.0022
in n-hexane | 0.0373 | 0.0478 | 0.0609 | 0.0769 | 0.0964 | 0.12 | 0.148 | 0.182 | 0.223 | 0.271
in toluene | 0.147 | 0.162 | 0.178 | 0.196 | 0.216 | 0.236 | 0.259 | 0.284 | 0.312 | 0.342
